Measured values reported in ChEMBL document CHEMBL3132769, “Fragment growing to retain or alter the selectivity of anchored kinase hinge-binding fragments” (Medchemcomm, 2014).

Tests used:
[1] = target: Cyclin-dependent kinase 2 (Homo sapiens) (UniProt P24941); assay: Inhibition of human full length CDK2 expressed in baculovirus assessed as substrate phosphorylation using fluorescence-labelled peptides as substrate at 0.06 uM after 90 mins by microfluidic peptide phosphorylation assay
[2] = target: Ribosomal protein S6 kinase alpha-1 (Homo sapiens) (UniProt Q15418); assay: Inhibition of human full length RSK1 expressed in baculovirus assessed as substrate phosphorylation using fluorescence-labelled peptides as substrate at 0.06 uM after 90 mins by microfluidic peptide phosphorylation assay
[3] = target: Receptor-type tyrosine-protein kinase FLT3 (Homo sapiens) (UniProt P36888); assay: Inhibition of human FLT3 catalytic domain expressed in baculovirus assessed as substrate phosphorylation using fluorescence-labelled peptides as substrate at 420 uM after 90 mins by microfluidic peptide phosphorylation assay
[4] = target: T1, Mitogen-activated protein kinase 12 (Homo sapiens) (UniProt P53778); assay: Inhibition of human full length p38 gamma expressed in Escherichia coli cell assessed as substrate phosphorylation using fluorescence-labelled peptides as substrate at 9 uM after 90 mins by microfluidic peptide phosphorylation assay
T1 sequence (whole entry): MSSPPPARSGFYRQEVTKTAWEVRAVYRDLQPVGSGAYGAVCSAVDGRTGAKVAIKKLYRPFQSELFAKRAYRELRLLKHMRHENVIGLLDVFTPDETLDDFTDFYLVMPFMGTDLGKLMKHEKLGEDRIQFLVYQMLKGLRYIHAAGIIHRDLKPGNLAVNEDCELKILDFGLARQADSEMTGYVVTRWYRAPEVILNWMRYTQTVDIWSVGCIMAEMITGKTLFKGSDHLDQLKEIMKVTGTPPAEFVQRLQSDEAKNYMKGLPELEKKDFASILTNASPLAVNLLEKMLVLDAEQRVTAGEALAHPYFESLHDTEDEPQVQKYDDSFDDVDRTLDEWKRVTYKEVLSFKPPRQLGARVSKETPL

[5] = tested on: Tyrosine-protein kinase ABL1 (Homo sapiens), P00519 [T315I]; assay: Inhibition of human truncated ABL T315I mutant expressed in baculovirus assessed as substrate phosphorylation using fluorescence-labelled peptides as substrate at 9 uM after 90 mins by microfluidic peptide phosphorylation assay
[6] = target: Protein kinase C delta type (Homo sapiens) (UniProt Q05655); assay: Inhibition of human truncated PKC delta expressed in baculovirus assessed as substrate phosphorylation using fluorescence-labelled peptides as substrate at 9 uM after 90 mins by microfluidic peptide phosphorylation assay
[7] = target: T2, Inhibitor of nuclear factor kappa-B kinase subunit beta (Homo sapiens) (UniProt O14920); assay: Inhibition of human full length IKK beta expressed in baculovirus assessed as substrate phosphorylation using fluorescence-labelled peptides as substrate at 70 uM after 90 mins by microfluidic peptide phosphorylation assay
T2 sequence (whole entry): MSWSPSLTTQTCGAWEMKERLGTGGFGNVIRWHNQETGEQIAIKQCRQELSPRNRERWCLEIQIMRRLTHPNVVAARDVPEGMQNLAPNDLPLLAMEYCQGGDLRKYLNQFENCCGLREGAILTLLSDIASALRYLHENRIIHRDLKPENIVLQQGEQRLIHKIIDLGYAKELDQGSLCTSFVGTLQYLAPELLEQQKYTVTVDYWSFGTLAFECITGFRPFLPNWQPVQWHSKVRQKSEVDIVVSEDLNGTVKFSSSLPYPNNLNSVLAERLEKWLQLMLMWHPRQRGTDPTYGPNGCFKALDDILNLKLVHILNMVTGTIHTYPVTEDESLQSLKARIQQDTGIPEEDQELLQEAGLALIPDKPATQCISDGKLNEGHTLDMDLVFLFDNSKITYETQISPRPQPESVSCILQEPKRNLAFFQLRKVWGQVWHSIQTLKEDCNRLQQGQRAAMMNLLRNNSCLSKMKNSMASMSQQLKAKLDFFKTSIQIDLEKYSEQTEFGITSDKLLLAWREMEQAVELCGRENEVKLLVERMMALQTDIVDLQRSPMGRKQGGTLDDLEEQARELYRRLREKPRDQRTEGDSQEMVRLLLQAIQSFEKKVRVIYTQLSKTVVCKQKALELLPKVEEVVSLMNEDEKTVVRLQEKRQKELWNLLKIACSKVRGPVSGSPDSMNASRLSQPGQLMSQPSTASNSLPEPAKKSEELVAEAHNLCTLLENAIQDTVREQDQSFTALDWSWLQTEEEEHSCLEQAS

[8] = tested on: Tyrosine-protein kinase ABL1 (Homo sapiens), P00519 [T315I]; assay: Inhibition of human truncated ABL T315I mutant expressed in baculovirus assessed as substrate phosphorylation using fluorescence-labelled peptides as substrate at 70 uM after 90 mins by microfluidic peptide phosphorylation assay
[9] = target: Mitogen-activated protein kinase 14 (Homo sapiens) (UniProt Q16539); assay: Inhibition of human truncated p38 alpha expressed in Escherichia coli cell assessed as substrate phosphorylation using fluorescence-labelled peptides as substrate at 95 uM after 90 mins by microfluidic peptide phosphorylation assay
[10] = target: Protein kinase C beta type (Homo sapiens) (UniProt P05771); assay: Inhibition of human full length PKC beta2 expressed in baculovirus assessed as substrate phosphorylation using fluorescence-labelled peptides as substrate at 95 uM after 90 mins by microfluidic peptide phosphorylation assay
[11] = target: T3, Serine/threonine-protein kinase BRSK2 (Homo sapiens) (UniProt Q8IWQ3); assay: Inhibition of human truncated BRSK2 expressed in baculovirus assessed as substrate phosphorylation using fluorescence-labelled peptides as substrate at 2 uM after 90 mins by microfluidic peptide phosphorylation assay
T3 sequence (whole entry): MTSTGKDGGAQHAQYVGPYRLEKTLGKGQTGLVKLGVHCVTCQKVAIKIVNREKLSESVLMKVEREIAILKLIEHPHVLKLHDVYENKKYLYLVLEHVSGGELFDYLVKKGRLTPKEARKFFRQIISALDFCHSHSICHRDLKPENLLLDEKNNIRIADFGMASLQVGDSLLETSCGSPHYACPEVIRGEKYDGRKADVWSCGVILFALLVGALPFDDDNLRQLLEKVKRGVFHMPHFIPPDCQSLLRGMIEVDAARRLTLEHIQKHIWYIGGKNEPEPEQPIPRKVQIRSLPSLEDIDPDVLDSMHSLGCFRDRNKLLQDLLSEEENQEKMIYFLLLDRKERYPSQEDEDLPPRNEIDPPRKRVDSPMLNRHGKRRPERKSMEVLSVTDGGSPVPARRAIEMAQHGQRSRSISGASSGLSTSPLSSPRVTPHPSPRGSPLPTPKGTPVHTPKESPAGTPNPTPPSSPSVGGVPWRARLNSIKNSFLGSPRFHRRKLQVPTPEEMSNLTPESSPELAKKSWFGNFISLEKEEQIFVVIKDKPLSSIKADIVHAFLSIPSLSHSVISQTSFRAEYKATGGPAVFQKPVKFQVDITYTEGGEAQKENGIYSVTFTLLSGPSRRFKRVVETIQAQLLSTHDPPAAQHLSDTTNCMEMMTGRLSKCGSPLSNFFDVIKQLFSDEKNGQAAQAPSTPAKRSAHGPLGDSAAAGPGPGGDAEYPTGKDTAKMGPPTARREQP

[12] = target: Protein kinase C beta type (Homo sapiens) (UniProt P05771); assay: Inhibition of human truncated PKC beta1 expressed in baculovirus assessed as substrate phosphorylation using fluorescence-labelled peptides as substrate at 2 uM after 90 mins by microfluidic peptide phosphorylation assay

Sequence of Protein kinase C beta type (Homo sapiens) (P05771 2-671 limits assumed): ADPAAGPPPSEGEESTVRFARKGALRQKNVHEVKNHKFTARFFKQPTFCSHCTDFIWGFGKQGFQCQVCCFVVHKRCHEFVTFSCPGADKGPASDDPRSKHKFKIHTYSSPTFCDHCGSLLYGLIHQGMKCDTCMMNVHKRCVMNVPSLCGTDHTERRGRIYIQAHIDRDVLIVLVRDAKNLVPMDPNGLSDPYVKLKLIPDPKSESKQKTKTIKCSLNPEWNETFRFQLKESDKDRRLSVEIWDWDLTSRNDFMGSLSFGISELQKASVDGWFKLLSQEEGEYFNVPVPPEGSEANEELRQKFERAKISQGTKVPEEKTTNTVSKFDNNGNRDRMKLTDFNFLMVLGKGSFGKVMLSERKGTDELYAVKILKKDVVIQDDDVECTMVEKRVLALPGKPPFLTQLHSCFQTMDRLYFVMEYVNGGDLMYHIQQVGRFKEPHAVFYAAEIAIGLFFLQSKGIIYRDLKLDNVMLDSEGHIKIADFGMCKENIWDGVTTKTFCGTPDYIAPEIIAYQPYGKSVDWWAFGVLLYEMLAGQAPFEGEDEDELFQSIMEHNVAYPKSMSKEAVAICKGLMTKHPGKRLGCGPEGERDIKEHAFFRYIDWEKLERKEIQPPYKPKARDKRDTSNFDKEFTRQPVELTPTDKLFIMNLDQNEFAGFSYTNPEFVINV
Sequence of Ribosomal protein S6 kinase alpha-1 (Homo sapiens) (Q15418 whole entry, the tested form may be a part): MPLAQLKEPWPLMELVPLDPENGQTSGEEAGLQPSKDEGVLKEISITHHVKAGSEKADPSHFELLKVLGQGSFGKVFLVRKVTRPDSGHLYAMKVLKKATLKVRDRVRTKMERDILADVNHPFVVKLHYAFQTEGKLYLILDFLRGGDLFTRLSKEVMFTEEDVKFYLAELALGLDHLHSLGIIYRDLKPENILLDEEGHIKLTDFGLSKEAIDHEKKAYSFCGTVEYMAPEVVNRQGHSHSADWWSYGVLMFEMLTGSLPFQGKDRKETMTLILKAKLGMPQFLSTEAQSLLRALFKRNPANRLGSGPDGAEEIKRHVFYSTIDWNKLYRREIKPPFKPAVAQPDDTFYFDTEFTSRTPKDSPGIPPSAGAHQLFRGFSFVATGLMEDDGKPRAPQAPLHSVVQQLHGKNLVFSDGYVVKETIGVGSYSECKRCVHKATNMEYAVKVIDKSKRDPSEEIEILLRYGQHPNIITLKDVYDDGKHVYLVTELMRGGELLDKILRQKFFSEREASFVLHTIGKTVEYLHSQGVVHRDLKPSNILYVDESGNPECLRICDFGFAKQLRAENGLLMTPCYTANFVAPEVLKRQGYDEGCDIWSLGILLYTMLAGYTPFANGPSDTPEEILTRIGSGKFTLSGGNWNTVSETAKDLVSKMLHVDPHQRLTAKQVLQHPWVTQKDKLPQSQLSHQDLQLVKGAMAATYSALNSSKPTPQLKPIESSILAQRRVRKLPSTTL
Sequence of Mitogen-activated protein kinase 14 (Homo sapiens) (Q16539 whole entry, the tested form may be a part): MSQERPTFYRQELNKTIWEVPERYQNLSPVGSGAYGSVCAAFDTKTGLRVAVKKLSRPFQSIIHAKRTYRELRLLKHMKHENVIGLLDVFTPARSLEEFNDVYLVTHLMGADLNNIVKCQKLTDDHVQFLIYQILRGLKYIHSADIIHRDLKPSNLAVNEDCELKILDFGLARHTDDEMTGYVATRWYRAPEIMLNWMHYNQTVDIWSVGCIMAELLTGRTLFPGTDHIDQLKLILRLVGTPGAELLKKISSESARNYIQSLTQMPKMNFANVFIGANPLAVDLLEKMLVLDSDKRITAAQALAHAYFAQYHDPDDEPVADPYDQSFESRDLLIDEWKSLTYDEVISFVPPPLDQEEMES
Sequence of Receptor-type tyrosine-protein kinase FLT3 (Homo sapiens) (P36888 whole entry, the tested form may be a part): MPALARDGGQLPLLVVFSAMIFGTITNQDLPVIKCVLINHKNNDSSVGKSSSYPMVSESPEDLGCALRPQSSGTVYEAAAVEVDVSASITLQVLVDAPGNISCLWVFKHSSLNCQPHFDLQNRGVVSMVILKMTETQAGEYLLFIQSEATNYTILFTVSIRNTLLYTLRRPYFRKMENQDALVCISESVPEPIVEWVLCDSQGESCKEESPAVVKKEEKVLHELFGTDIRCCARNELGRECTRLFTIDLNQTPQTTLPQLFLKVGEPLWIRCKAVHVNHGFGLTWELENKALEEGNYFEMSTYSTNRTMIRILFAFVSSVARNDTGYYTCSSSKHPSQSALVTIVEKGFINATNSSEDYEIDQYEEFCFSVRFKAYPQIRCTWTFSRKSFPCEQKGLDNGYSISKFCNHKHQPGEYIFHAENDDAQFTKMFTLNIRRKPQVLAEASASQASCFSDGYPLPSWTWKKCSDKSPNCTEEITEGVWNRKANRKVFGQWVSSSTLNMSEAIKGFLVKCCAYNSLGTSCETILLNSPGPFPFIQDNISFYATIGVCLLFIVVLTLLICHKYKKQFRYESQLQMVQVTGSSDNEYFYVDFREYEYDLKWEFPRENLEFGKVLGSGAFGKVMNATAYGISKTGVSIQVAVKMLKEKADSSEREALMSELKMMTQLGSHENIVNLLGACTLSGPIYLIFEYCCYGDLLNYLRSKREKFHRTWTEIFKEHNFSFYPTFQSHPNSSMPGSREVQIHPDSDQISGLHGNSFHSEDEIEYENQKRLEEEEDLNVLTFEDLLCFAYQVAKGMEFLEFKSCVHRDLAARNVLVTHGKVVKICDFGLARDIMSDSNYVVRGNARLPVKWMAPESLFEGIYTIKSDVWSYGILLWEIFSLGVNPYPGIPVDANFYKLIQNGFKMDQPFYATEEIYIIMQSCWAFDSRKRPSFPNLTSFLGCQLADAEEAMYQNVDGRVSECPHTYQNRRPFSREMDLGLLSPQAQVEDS
Sequence of Protein kinase C delta type (Homo sapiens) (Q05655 whole entry, looked up, the tested form may be a part): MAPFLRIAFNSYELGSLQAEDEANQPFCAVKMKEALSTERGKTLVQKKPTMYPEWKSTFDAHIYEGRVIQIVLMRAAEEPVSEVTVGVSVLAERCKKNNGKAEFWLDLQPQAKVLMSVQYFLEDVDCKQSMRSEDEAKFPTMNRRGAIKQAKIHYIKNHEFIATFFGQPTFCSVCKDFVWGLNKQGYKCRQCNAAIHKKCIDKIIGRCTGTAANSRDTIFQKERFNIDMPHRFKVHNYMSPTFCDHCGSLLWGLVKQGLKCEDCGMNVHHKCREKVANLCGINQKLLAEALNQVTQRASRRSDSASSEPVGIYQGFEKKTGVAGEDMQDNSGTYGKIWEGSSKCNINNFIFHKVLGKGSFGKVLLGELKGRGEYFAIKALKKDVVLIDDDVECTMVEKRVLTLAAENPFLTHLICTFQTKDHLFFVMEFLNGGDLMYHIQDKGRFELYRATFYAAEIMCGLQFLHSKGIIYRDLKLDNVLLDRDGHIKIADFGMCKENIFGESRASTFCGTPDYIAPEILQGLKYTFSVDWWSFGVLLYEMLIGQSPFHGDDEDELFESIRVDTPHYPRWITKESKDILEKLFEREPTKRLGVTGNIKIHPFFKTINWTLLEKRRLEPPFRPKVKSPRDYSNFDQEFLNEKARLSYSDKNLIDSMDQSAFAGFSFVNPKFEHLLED

NC1(Cc2ccc(Cl)cc2)CCN(c2ncnc3[nH]ccc23)CC1
inhibition [1]: 1% | inhibition [2]: 19.5%

c1nc(N2CCOCC2)c2nc[nH]c2n1
inhibition [3]: 85.5%

NCC1CN(c2ncnc3[nH]c4cnccc4c23)CCO1 (configuration not stated)
inhibition [4]: 4.5% | inhibition [5]: 10% | inhibition [6]: 37.5%

CNCc1ccc(-c2ncnc3[nH]cnc23)cc1
inhibition [7]: 90.5% | inhibition [8]: 22%

NCCc1ccc(-c2ncnc3[nH]cnc23)cc1
inhibition [9]: 6.5% | inhibition [10]: 0%

NC1CCN(c2ncnc3[nH]ccc23)CC1
inhibition [11]: 2.5% | inhibition [12]: 16.5%
